Experimental data published in patent US20240091365A1, “BETA-GLUCURONIDE LINKER-PAYLOADS, PROTEIN CONJUGATES THEREOF, AND METHODS THEREOF” (priority 2022, published 2024).
Like-named read-outs stand apart in the source and are kept apart here.

Assays:
A549 cells = assay: In vitro cell killing (cell proliferation assay, Cell Titer-Glo) on FolRα negative A549 cells; assay type: cell-based; settings: for cell killing (in words): A549 cells (hFolRα negative)
Description: (§1) Anti-FolRα antibody conjugated to hemiasterlin with a cathepsin cleavable ValCit linker was used as control. FolRα negative A549 and MC38 cells were purchased from ATCC (American Type Culture Collection, Manassas, VA, USA), and FolRα positive Igrov1 cells were licensed from NCI (National Cancer Institute at Frederick, Maryland). MC38-hFolRα cells were generated at Sutro by stable transfection of a vector expressing human FolRa. All the cell lines were maintained in DMEM:F12 (1:1), high glucose (Corning, Corning, NY) supplemented with 10% heat-inactivated fetal bovine serum (Thermo Scientific, Grand Island, NY), 2 mM glutamax (Thermo Scientific, Grand Island, NY), and 1× Penicillin/Streptomycin (Corning, Corning, NY). Cytotoxicity effects of the ADCs were measured with a cell proliferation assay. A total of 625 cells for Igrov1 and A549, and 312 cells for MC38-hFolRα in a volume of 25 microliters were seeded in a 384-well flat bottom white polystyrene plate the day before the actual assay starts. ADCs were formulated at 2× starting concentration in cell culture medium and filtered through MultiScreen HTS 96-Well Filter Plates (Millipore, Billerica, Massachusetts). Filter sterilized samples were serial diluted (1:3) under sterile conditions and added onto cells in triplicate. Plates were cultured at 37° C. in a CO2 incubator for 120 hours for Igrov1 and A549, and 72 hours for MC38-hFolRα cells. For cell viability measurement, 30 microliters of Cell Titer-Glo® reagent (Promega Corp, Madison, WI) was added into each well, and plates were processed as per product instructions. Relative luminescence was measured on an ENVISION® plate reader (Perkin-Elmer; Waltham, MA). Relative luminescence readings were converted to % viability using untreated cells as controls. Data was fitted with non-linear regression analysis using log (inhibitor) vs. response, variable slope, and 4-parameter fit equation using GraphPad Prism.

MC38-hFolRα cells = assay: In vitro cell killing (cell proliferation assay, Cell Titer-Glo) on MC38-hFolRα cells; assay type: cell-based; settings: for cell killing (in words): MC38-hFolRα cells (FolRα positive)
Description: as §1

Igrov1 cells = assay: In vitro cell killing (cell proliferation assay, Cell Titer-Glo) on FolRα positive Igrov1 cells; assay type: cell-based; settings: for cell killing (in words): Igrov1 cells (FolRα positive)
Description: as §1

E. coli β-Glucuronidase = E. coli β-Glucuronidase (Escherichia coli, UniProt P05804); assay: β-Glucuronidase reactivity: enzymatic cleavage of linker-payloads monitored by LCMS; assay type: in vitro ADME; settings: 10 μM linker-payload, 300 U/mL enzyme, 50 mM sodium acetate, 37° C., release of (207) from (107), (201) from (108)
Sequence of E. coli β-Glucuronidase (P05804 whole entry): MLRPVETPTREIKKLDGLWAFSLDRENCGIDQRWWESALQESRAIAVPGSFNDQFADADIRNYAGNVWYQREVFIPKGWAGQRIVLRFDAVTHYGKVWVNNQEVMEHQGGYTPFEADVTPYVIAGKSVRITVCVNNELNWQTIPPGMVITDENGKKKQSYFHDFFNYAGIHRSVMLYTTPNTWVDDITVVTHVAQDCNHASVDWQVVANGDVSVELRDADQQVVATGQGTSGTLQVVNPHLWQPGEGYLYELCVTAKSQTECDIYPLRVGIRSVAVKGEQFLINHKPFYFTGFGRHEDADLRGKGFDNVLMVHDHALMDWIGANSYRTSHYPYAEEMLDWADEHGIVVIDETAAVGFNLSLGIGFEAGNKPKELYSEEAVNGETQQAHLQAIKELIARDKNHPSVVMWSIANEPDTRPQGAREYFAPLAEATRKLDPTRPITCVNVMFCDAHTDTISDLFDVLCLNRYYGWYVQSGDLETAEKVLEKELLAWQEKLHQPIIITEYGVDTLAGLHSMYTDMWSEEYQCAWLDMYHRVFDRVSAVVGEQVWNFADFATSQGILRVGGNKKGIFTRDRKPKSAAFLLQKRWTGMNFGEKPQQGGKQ
Experimental: The susceptibility of the β-glucuronide linker-payloads to enzymatic cleavage was evaluated by treatment of the (107) and (108) linker-payloads with β-glucuronidase, as shown in FIG. 3A-FIG. 3D. This assay allowed the confirmation of the expected release of Exatecan (207) and 3-amino hemiasterlin (201). The cleavage product was monitored using LCMS. 945 μL of 50 mM sodium acetate, 5 μL of 2 mM (107)/(108) linker-payloads stock (final conc.10 μM) and 50 μL of 6 KU/mL E. coli β-Glucuronidase in 0.2% NaCl (final conc.300 U/mL) were mixed and incubated at 37° C. Aliquots (50 μL) were taken at t=0 h, 0.5 h, 1 h, 2 h, 4 h and 24 h, treated with 3 volumes of quench solution (methanol:acetonitrile 5:95 v/v) and analyzed by LCMS.

Molecule	cell killing (in words) (A549 cells)	Span (A549 cells; A549 cells, 120 hours)	EC50 (A549 cells; A549 cells, 120 hours, read-out: EC50)	Span (MC38-hFolRα cells; MC38-FolRa cells, 72 hours)	EC50 (MC38-hFolRα cells; MC38-FolRa cells, 72 hours, read-out: EC50)	cell killing (in words) (MC38-hFolRα cells)	cell killing (in words) (Igrov1 cells)	Span (Igrov1 cells; Igrov1 cells, 120 hours)	EC50 (Igrov1 cells; Igrov1 cells, 120 hours, read-out: EC50)	linker-payload after 30 min with β-glucuronidase (in words) (E. coli β-Glucuronidase)	EC50 (A549 cells; Homo sapiens, A549, 120 h)	EC50 (MC38-hFolRα cells; 72 h)	EC50 (Igrov1 cells; Homo sapiens, IGROV-1, 120 h)	potency relative to free Hemiasterlin (201) (Igrov1 cells; free payloads, statement for the three cell lines tested (Igrov1, MC38-hFolRα, A549))
3-amino hemiasterlin [Compound 201]	good cell killing	83%	13 nM	82%	5.5 nM	good cell killing	good cell killing	88%	0.96 nM					
CC[C@@]1(O)C(=O)OCc2c1cc1n(c2=O)Cc2c-1nc1cc(F)c(C)c3c1c2[C@@H](NC(=O)OCc1ccc(O[C@@H]2O[C@H](C(=O)O)[C@@H](O)[C@H](O)[C@H]2O)c(CNC(=O)CCNC(=O)[C@H](CNC(=O)CCOCCOCCOCCOCCOCCOCCOCCOCCOCCOCCOCCOC)NC(=O)CCCCC(=O)N2Cc4ccccc4C#Cc4ccccc42)c1)CC3 [Compound 107, DBCO β-Glucuronide-PEG12-Exatecan]										most of the (107) and (108) in the reaction mixture had disappeared				
CN[C@H](C(=O)N[C@H](C(=O)N(C)[C@H](/C=C(\C)C(=O)O)C(C)C)C(C)(C)C)C(C)(C)c1cccc(NC(=O)OCc2ccc(O[C@@H]3O[C@H](C(=O)O)[C@@H](O)[C@H](O)[C@H]3O)c(CNC(=O)CCNC(=O)[C@H](CNC(=O)CCOCCOCCOCCOCCOCCOCCOCCOCCOCCOCCOCCOC)NC(=O)CCCCC(=O)N3Cc4ccccc4C#Cc4ccccc43)c2)c1 [Compound 108]										most of the (107) and (108) in the reaction mixture had disappeared				
CC[C@@]1(O)C(=O)OCc2c1cc1n(c2=O)Cc2c-1nc1cc(F)c(C)c3c1c2[C@@H](N)CC3 [Compound 207, Exatecan]	good cell killing	99%		95%		good cell killing	good cell killing	91%			3.4 nM	2.3 nM	0.27 nM	about 3 fold
